Laboratory results reported in patent US7632918B2, “Semi-synthetic glycopeptides with antibiotic activity” (Novartis Vaccines and Diagnostics, Inc., priority 2005, dated 2009).
Converted amounts (≈) assume the structure as drawn.

Experiments:
Test in all cases: MIC, broth microdilution in Meuller-Hinton broth (NCCLS)
3798 S. aureus (GISA) = format: cell-based, Staphylococus aureus; conditions: glycopeptides-intermediate clinical isolate
Method: (§1) Antibacterial activity in vitro was investigated by broth microdilution method in Meuller-Hinton broth as recommended by NCCLS. All strains tested were clinical isolates either sensitive or resistant to natural glycopeptides. Results are reported in the tables as MIC (minimal inhibitory concentration) in μg/ml.
(§2) The glycopeptides were tested against a variety of strains, indicated below, including Staphylococus epidermidis, Staphylococus haemolyticus, glycopeptides-intermediate Staphylococus aureus (GISA), glocopeptide-sensitive Enterococcus faecalis (GSE), and glocopeptide-resistant Enterococcus faecalis (GRE). Results are shown in the table as minimum inhibitory concentration (MIC) in units of μg/ml: […]

3797 S. aureus (GISA) = format: cell-based, Staphylococus aureus; conditions: glycopeptides-intermediate clinical isolate
Method: as §1, §2

568 E. faecium (GSE) = format: cell-based; conditions: glycopeptide-sensitive clinical isolate
Method: as §1, §2

569 E. faecium (GRE) = format: cell-based; conditions: glycopeptide-resistant clinical isolate
Method: as §1, §2

560 E. faecalis (GRE) = format: cell-based, Enterococcus faecalis; conditions: glycopeptide-resistant clinical isolate
Method: as §1, §2

559 E. faecalis (GSE) = format: cell-based, Enterococcus faecalis; conditions: glycopeptide-sensitive clinical isolate
Method: as §1, §2

533 S. epidermidis = format: cell-based, Staphylococus epidermidis; conditions: clinical isolate
Method: as §1, §2

602 S. haemolyticus = format: cell-based, Staphylococus haemolyticus; conditions: clinical isolate
Method: as §1, §2

| SMILES | MIC 3798 S. aureus (GISA) (3798 S. aureus (GISA)) [µg/mL] | MIC 3797 S. aureus (GISA) (3797 S. aureus (GISA)) [µg/mL] | MIC 568 E. faecium (GSE) (568 E. faecium (GSE)) [µg/mL] | MIC 569 E. faecium (GRE) (569 E. faecium (GRE)) [µg/mL] | MIC 560 E. faecalis (GRE) (560 E. faecalis (GRE)) [µg/mL] | MIC 559 E. faecalis (GSE) (559 E. faecalis (GSE)) [µg/mL] | MIC 533 S. epidermidis (533 S. epidermidis) [µg/mL] | MIC 602 S. haemolyticus (602 S. haemolyticus) [µg/mL] |
| --- | --- | --- | --- | --- | --- | --- | --- | --- |
| CNC(CC(C)C)C(=O)NC1C(=O)NC(CC(N)=O)C(=O)NC2C(=O)NC3C(=O)NC(C(=O)NC(C(=O)O)c4cc(O)cc(O)c4-c4cc3ccc4O)C(OC3CC(C)(N)C(O)C(C)O3)c3ccc(cc3)Oc3cc2cc(c3OC2OC(CO)C(O)C(O)C2OC2CC(C)(NC(=O)CNCc3ccc(-c4ccc(Cl)cc4)cc3)C(O)C(C)O2)Oc2ccc(cc2Cl)C1O (centres unmarked) [Compound 44] | 4 (≈ 2.2 µM) | 4 (≈ 2.2 µM) | 1 (≈ 0.551 µM) | 8 (≈ 4.41 µM) | 8 (≈ 4.41 µM) | 1 (≈ 0.551 µM) | 0.5 (≈ 0.275 µM) | 2 (≈ 1.1 µM) |
| CCCCc1ccc(CNCC(=O)NC2(C)CC(OC3C(Oc4c5cc6cc4Oc4ccc(cc4Cl)C(O)C(NC(=O)C(CC(C)C)NC)C(=O)NC(CC(N)=O)C(=O)NC6C(=O)NC4C(=O)NC(C(=O)NC(C(=O)NC6C7CC8CC(C7)CC6C8)c6cc(O)cc(O)c6-c6cc4ccc6O)C(OC4CC(C)(N)C(O)C(C)O4)c4ccc(cc4)O5)OC(CO)C(O)C3O)OC(C)C2O)cc1 (centres unmarked) [Compound 263] | 16 (≈ 8.45 µM) | 16 (≈ 8.45 µM) | 8 (≈ 4.22 µM) | 8 (≈ 4.22 µM) | 8 (≈ 4.22 µM) | 8 (≈ 4.22 µM) | 8 (≈ 4.22 µM) | 8 (≈ 4.22 µM) |
| CCCCCCCCOc1ccc(CNCC(=O)NC2(C)CC(OC3C(Oc4c5cc6cc4Oc4ccc(cc4Cl)C(O)C4NC(=O)C(NC(=O)C6NC(=O)C(CC(N)=O)NC(=O)C(NC(=O)C(CC(C)C)NC)C(O)c6ccc(c(Cl)c6)O5)c5ccc(O)c(c5)-c5c(O)cc(O)cc5C(C(=O)NCc5ccc(F)cc5)NC4=O)OC(CO)C(O)C3O)OC(C)C2O)cc1 (centres unmarked) [Compound 277] | 4 (≈ 2.18 µM) | 8 (≈ 4.37 µM) | 4 (≈ 2.18 µM) | 8 (≈ 4.37 µM) | 8 (≈ 4.37 µM) | 4 (≈ 2.18 µM) | 4 (≈ 2.18 µM) | 8 (≈ 4.37 µM) |
| CNC(CC(C)C)C(=O)NC1C(=O)NC(CC(N)=O)C(=O)NC2C(=O)NC3C(=O)NC(C(=O)NC(C(=O)O)c4cc(O)cc(O)c4-c4cc3ccc4O)C(OC3CC(C)(N)C(O)C(C)O3)c3ccc(cc3)Oc3cc2cc(c3OC2OC(CO)C(O)C(O)C2OC2CC(C)(NC(=O)CNCc3ccc(F)cc3)C(O)C(C)O2)Oc2ccc(cc2Cl)C1O (centres unmarked) [Compound 293] | 8 (≈ 4.64 µM) | 8 (≈ 4.64 µM) | 4 (≈ 2.32 µM) | 16 (≈ 9.29 µM) | 16 (≈ 9.29 µM) | 4 (≈ 2.32 µM) | 4 (≈ 2.32 µM) | 4 (≈ 2.32 µM) |
| CNC(CC(C)C)C(=O)NC1C(=O)NC(CC(N)=O)C(=O)NC2C(=O)NC3C(=O)NC(C(=O)NC(C(=O)O)c4cc(O)cc(O)c4-c4cc3ccc4O)C(OC3CC(C)(N)C(O)C(C)O3)c3ccc(cc3)Oc3cc2cc(c3OC2OC(CO)C(O)C(O)C2OC2CC(C)(NC(=O)CNCc3ccc(C(F)(F)F)cc3)C(O)C(C)O2)Oc2ccc(cc2Cl)C1O (centres unmarked) [Compound 294] | 4 (≈ 2.26 µM) | 4 (≈ 2.26 µM) | 0.5 (≈ 0.282 µM) | >64 | >64 | 0.5 (≈ 0.282 µM) | 1 (≈ 0.564 µM) | 1 (≈ 0.564 µM) |
| CCCCCCCCOc1ccc(CNC(CCCN)C(=O)NC2(C)CC(OC3C(Oc4c5cc6cc4Oc4ccc(cc4Cl)C(O)C4NC(=O)C(NC(=O)C6NC(=O)C(CC(N)=O)NC(=O)C(NC(=O)C(CC(C)C)NC)C(O)c6ccc(c(Cl)c6)O5)c5ccc(O)c(c5)-c5c(O)cc(O)cc5C(C(=O)O)NC4=O)OC(CO)C(O)C3O)OC(C)C2O)cc1 (centres unmarked) [Compound 241] | 2 (≈ 1.12 µM) | 2 (≈ 1.12 µM) | 1 (≈ 0.561 µM) | 16 (≈ 8.98 µM) | 16 (≈ 8.98 µM) | 1 (≈ 0.561 µM) | 0.5 (≈ 0.281 µM) | 1 (≈ 0.561 µM) |
| CCCCCCCCOc1ccc(CNCC(=O)NC2(C)CC(OC3C(Oc4c5cc6cc4Oc4ccc(cc4Cl)C(O)C(NC(=O)C(CC(C)C)NC)C(=O)NC(CC(N)=O)C(=O)NC6C(=O)NC4C(=O)NC(C(=O)NC(C(=O)O)c6cc(O)cc(O)c6-c6cc4ccc6O)C(OC4CC(C)(N)C(O)C(C)O4)c4ccc(cc4)O5)OC(CO)C(O)C3O)OC(C)C2O)cc1 (centres unmarked) [Compound 214] | 4 (≈ 2.18 µM) | 4 (≈ 2.18 µM) | 0.5 (≈ 0.273 µM) | 8 (≈ 4.36 µM) | 8 (≈ 4.36 µM) | 1 (≈ 0.545 µM) | 1 (≈ 0.545 µM) | 1 (≈ 0.545 µM) |
| CNC(CC(C)C)C(=O)NC1C(=O)NC(CC(N)=O)C(=O)NC2C(=O)NC3C(=O)NC(C(=O)NC(C(=O)O)c4cc(O)cc(O)c4-c4cc3ccc4O)C(O)c3ccc(c(Cl)c3)Oc3cc2cc(c3OC2OC(CO)C(O)C(O)C2OC2CC(C)(NC(=O)CNCc3ccc(F)cc3)C(O)C(C)O2)Oc2ccc(cc2Cl)C1O (centres unmarked) [Compound 291] | 4 (≈ 2.48 µM) | 4 (≈ 2.48 µM) | 1 (≈ 0.619 µM) | 8 (≈ 4.96 µM) | 8 (≈ 4.96 µM) | 1 (≈ 0.619 µM) | 4 (≈ 2.48 µM) | 4 (≈ 2.48 µM) |
| CNC(CC(C)C)C(=O)NC1C(=O)NC(CC(N)=O)C(=O)NC2C(=O)NC3C(=O)NC(C(=O)NC(C(=O)O)c4cc(O)cc(O)c4-c4cc3ccc4O)C(OC3CC(C)(N)C(O)C(C)O3)c3ccc(cc3)Oc3cc2cc(c3OC2OC(CO)C(O)C(O)C2OC2CC(C)(NC(=O)[C@@H](N)Cc3ccccc3)C(O)C(C)O2)Oc2ccc(cc2Cl)C1O (some centres unmarked) [Compound 230] | >32 | >32 | 2 (≈ 1.17 µM) | >64 | >64 | 2 (≈ 1.17 µM) | 4 (≈ 2.35 µM) | 4 (≈ 2.35 µM) |
| CCCCc1ccc(CNCC(=O)NC2(C)CC(OC3C(Oc4c5cc6cc4Oc4ccc(cc4Cl)C(O)C4NC(=O)C(NC(=O)C6NC(=O)C(CC(N)=O)NC(=O)C(NC(=O)C(CC(C)C)NC)C(O)c6ccc(c(Cl)c6)O5)c5ccc(O)c(c5)-c5c(O)cc(O)cc5C(C(=O)NCc5ccc(F)cc5)NC4=O)OC(CO)C(O)C3O)OC(C)C2O)cc1 (centres unmarked) [Compound 276] | 2 (≈ 1.14 µM) | 2 (≈ 1.14 µM) | 2 (≈ 1.14 µM) | 16 (≈ 9.09 µM) | 16 (≈ 9.09 µM) | 4 (≈ 2.27 µM) | 0.5 (≈ 0.284 µM) | 2 (≈ 1.14 µM) |
| CNC(CC(C)C)C(=O)NC1C(=O)NC(CC(N)=O)C(=O)NC2C(=O)NC3C(=O)NC(C(=O)NC(C(=O)NC(C)C45CC6CC(CC(C6)C4)C5)c4cc(O)cc(O)c4-c4cc3ccc4O)C(OC3CC(C)(N)C(O)C(C)O3)c3ccc(cc3)Oc3cc2cc(c3OC2OC(CO)C(O)C(O)C2OC2CC(C)(N)C(O)C(C)O2)Oc2ccc(cc2Cl)C1O (centres unmarked) [Compound 262] | 2 (≈ 1.16 µM) | 4 (≈ 2.33 µM) | 0.5 (≈ 0.291 µM) | 16 (≈ 9.31 µM) | 16 (≈ 9.31 µM) | 1 (≈ 0.582 µM) | 0.5 (≈ 0.291 µM) | 1 (≈ 0.582 µM) |
| CNC(CC(C)C)C(=O)NC1C(=O)NC(CC(N)=O)C(=O)NC2C(=O)NC3C(=O)NC(C(=O)NC(C(=O)O)c4cc(O)cc(O)c4-c4cc3ccc4O)C(O)c3ccc(c(Cl)c3)Oc3cc2cc(c3OC2OC(CO)C(O)C(O)C2OC2CC(C)(NC(=O)CNCc3ccc(C(F)(F)F)cc3)C(O)C(C)O2)Oc2ccc(cc2Cl)C1O (centres unmarked) [Compound 290] | 4 (≈ 2.4 µM) | 4 (≈ 2.4 µM) | 4 (≈ 2.4 µM) | >64 | >64 | 2 (≈ 1.2 µM) | 4 (≈ 2.4 µM) | 4 (≈ 2.4 µM) |
| CCCCOc1ccc(CNCC(=O)NC2(C)CC(OC3C(Oc4c5cc6cc4Oc4ccc(cc4Cl)C(O)C4NC(=O)C(NC(=O)C6NC(=O)C(CC(N)=O)NC(=O)C(NC(=O)C(CC(C)C)NC)C(O)c6ccc(c(Cl)c6)O5)c5ccc(O)c(c5)-c5c(O)cc(O)cc5C(C(=O)O)NC4=O)OC(CO)C(O)C3O)OC(C)C2O)cc1 (centres unmarked) [Compound 218] | 1 (≈ 0.599 µM) | 0.5 (≈ 0.3 µM) | 0.5 (≈ 0.3 µM) | >64 | >64 | 1 (≈ 0.599 µM) | 0.13 (≈ 0.0779 µM) | 0.13 (≈ 0.0779 µM) |
